Results on 15 molecules are retold here after ChEMBL document CHEMBL1143165, “N-[omega-[4-(2-methoxyphenyl)-1-piperazinyl]alkyl]-2-quinolinamines as high-affinity fluorescent 5-HT1A receptor ligands” (J Med Chem, 2008).

For test [1], the target named is T1, 5-hydroxytryptamine receptor 1A (Homo sapiens, UniProt P08908).
T1 sequence (P08908 whole entry): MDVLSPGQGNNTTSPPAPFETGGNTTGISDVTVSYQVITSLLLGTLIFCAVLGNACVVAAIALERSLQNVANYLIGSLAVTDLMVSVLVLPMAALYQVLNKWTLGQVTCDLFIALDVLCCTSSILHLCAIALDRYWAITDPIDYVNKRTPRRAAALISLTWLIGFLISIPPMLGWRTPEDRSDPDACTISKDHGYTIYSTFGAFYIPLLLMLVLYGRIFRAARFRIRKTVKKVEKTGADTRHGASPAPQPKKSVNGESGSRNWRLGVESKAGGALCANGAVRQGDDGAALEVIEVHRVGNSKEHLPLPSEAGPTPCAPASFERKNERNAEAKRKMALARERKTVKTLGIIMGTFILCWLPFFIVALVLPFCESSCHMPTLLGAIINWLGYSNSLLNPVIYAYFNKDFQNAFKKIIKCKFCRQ
Kind of test: Displacement of [3H]8-OH-DPAT from human 5HT1A receptor expressed in HEK293 cells after 120 mins. The test is classed as cell-based.

A short description of test [2]: Agonist activity at 5HT1A receptor in guinea pig ileum assessed as inhibition of electrically-stimulated muscle contraction. The test is classed as functional, tissue-based. The following applies: Cavia porcellus.
Test [3] in a line: Agonist activity at 5HT1A receptor in guinea pig ileum assessed as inhibition of electrically-stimulated muscle contraction relative to baseline. The test is classed as functional, Cavia porcellus. Also noted: scale not given: the % may be the effect or the level left.
The next test is filed under the species Cavia porcellus. The test is described as follows: Reversal of agonist activity at 5HT1A receptor in guinea pig in presence of 5HT1A antagonist WAY-100635. The test is classed as functional.

Calls of active or inactive are those of the source. The calls are words filed in the database; no cut-off is given here.

As to `COc1ccccc1N1CCN(CCCCNc2ccc3cc(C)ccc3n2)CC1`, the Ki in test [1] is 0.54 nM.

`COc1ccc2nc(NCCN3CCN(c4ccccc4OC)CC3)ccc2c1`: the affinity in test [1], expressed as Ki, was 28 nM. Same read-out and setting: for `COc1ccc2nc(NCCCCCN3CCN(c4ccccc4OC)CC3)ccc2c1` the value was 2.6 nM; for `COc1ccccc1N1CCN(CCCNc2ccc3ccccc3n2)CC1`, 13 nM; for `COc1ccccc1N1CCN(CCCCCNc2ccc3ccccc3n2)CC1`, 0.03 nM. Molecule `COc1ccccc1N1CCN(CCCCNc2ccc3cc(N)ccc3n2)CC1` showed a Ki in test [1] of 0.38 nM. The 50% effective concentration (EC50) in test [2] is 62100 nM. Further, the Activity in test [3] turned out to be 81%. In turn, `COc1ccc2nc(NCCCN3CCN(c4ccccc4OC)CC3)ccc2c1` showed a Ki in test [1] of 22 nM. In test [1], `COc1ccccc1N1CCN(CCNc2ccc3cc([N+](=O)[O-])ccc3n2)CC1` showed an inhibition constant (Ki) of 14.2 nM. Molecule `COc1ccc2nc(NCCCCN3CCN(c4ccccc4OC)CC3)ccc2c1` gave a Ki in test [1] of 0.2 nM. Also, in test [2], the EC50 is 34400 nM. Further, the outcome in the test listed under Cavia porcellus was Active. In test [1], `COc1ccc2ccc(NCCN3CCN(c4ccccc4OC)CC3)nc2c1` registered a Ki of 2.1 nM. Molecule `COc1ccccc1N1CCN(CCNc2ccc3ccccc3n2)CC1` displayed an inhibitory constant (Ki) in test [1] of 33 nM. Consider `COc1ccc2ccc(NCCCN3CCN(c4ccccc4OC)CC3)nc2c1`, for which the Ki in test [1] worked out at 0.2 nM. On the same count and under the same terms, for `COc1ccccc1N1CCN(CCCCNc2ccc3ccccc3n2)CC1` the value was 9.7 nM; for `COc1ccc2ccc(NCCCCN3CCN(c4ccccc4OC)CC3)nc2c1`, 4.6 nM; for `COc1ccc2ccc(NCCCCCN3CCN(c4ccccc4OC)CC3)nc2c1`, 0.5 nM.
